Patent US6497872B1, “Neural transplantation using proliferated multipotent neural stem cells and their progeny” (NeuroSpheres Holdings Ltd., priority 1991, dated 2002)

Columns and labels:
[1] = system: constitutively proliferating subependymal cells; assay: 3H-thymidine kill of constitutively proliferating subependymal cells, BrdU count (Example 24); type: in vivo, mouse; parameters: concentration or dose not given beside the values
Protocol: Adult male CD1 mice received a series of intraperitoneal injections of 3H-thymidine (0.8 ml per injection, specific activity 45-55 mCi/mmole, ICN Biomedical) on day 0 (3 injections, 1 every 4 hours) in order to kill the constitutively proliferating subependymal cells. On day 0.5, 1, 2, 4, 6, 8 or 12, animals received 2 BrdU injections 1 hour apart (see Example 25) and were sacrificed 0.5 hour after the last injection. In a second group of animals, 3H-thymidine injections were given on day 0 (3 injections, 1 every 4 hours), followed by an identical series of injections on day 2 or 4. Animals were allowed to survive for 8 days following the second series of injections ([…] and 12 respectively) at which time they received 2 injections of BrdU and were sacrificed 0.5 hours later. Animals were sacrificed and the brains were removed and processed as described in Example 25.

[2] = system: relatively quiescent neural stem cells in subependyma; assay: 3H-thymidine kill, number of neurospheres formed in vitro (Example 26); type: in vivo, mouse
Protocol: As detailed in Example 26 below, an experiment was performed to determine whether the in vitro stem cell is derived from the constitutively proliferating population or from the quiescent population. Animals were treated in one of the following ways: […] Adult male CD1 mice were divided into 4 groups. Group A animals received a series of 3H-thymidine injections on day 0 (3 injections, 1 every 4 hours). Animals in groups B and C received a series of 3H-thymidine injections on day 0 followed by a second series of injections on day 2 or 4. Group D animals received injections of physiological saline instead of 3H-thymidine over the same time course as group A. Animals from all groups were sacrificed by cervical dislocation 16-20 hours following the last series of injections. Brains were removed and neural tissue obtained from the subependyma surrounding the lateral ventricles in the forebrain was dissociated and the neural cells cultured as described in Example 5. At 6 and 8 days in vitro, the total number of spheres was counted in each of the 35 mm wells.

Primary striatal cells = assay: Striatum-derived neurosphere proliferation in response to proliferative and regulatory factors (Example 43, Paradigm 1); type: cell-based, mouse; conditions: for Numbers of neurospheres generated (#): decrease (−) or increase (+) per well compared with absence of the REGULATORY FACTOR: 10-12 days; for numbers of neurospheres generated: in all of the proliferative factors or combinations tested
Protocol: Paradigm 1: Primary striatal cells prepared as outlined in Example 1 were suspended in Complete Medium, without growth factors, plated in 96 well plates (Nunclon) and incubated as described in Example 4. Following a one hour incubation period, a specific proliferative factor, or a combination of proliferative factors including EGF, or bFGF (recombinant human bFGF: R & D Systems), or a combination of EGF and bFGF, or EGF plus FGF plus heparan sulfate (Sigma), or bFGF plus heparan sulfate made up in Complete Medium at a concentration of 20 ng/ml for each of the growth factors and 2 μg/ml for heparan sulfate), was added to each well of the plate.
Retinoic acid (Sigma) was added at a concentration of 10^−6 M. 10 μl of one of these regulatory factor-containing solutions was added to each proliferative factor-containing well of the 96 well plates. Control wells, containing only proliferative factors, were also prepared. […]
IL-2, IL-6, IL-8, MIP-1∂, MIP-1β, MIP-2, TNFα and EGF additions were repeated every second day, CNTF which was added each day and retinoic acid, NGF and PDGF were added only once, at the beginning of the experiment. The cells were incubated for a period of 10-12 days. The number of neurospheres in each well was counted and the resulting counts tabulated using Cricket Graph III. Other relevant information regarding sphere size and shape were also noted.

[3] = system: EGF-generated neurospheres; assay: Effect of growth factors on neurosphere differentiation, immunocytochemistry (Example 8); type: cell-based, mouse
Protocol: Six to 8 days after the first passage, the neurospheres were removed and centrifuged at 400 r.p.m. The EGF-containing supernatant was removed and the pellet suspended in EGF-free complete medium containing 1% FBS. Neurospheres (approximately 0.5-1.0×10^6 cells/well) were plated on poly-L-ornithine-coated (15 μg/ml) glass coverslips in 24 well Nuclon (1.0 ml/well) culture dishes. After 24 hours in culture, the coverslips were transferred to 12 well (Costar) culture dishes containing complete medium containing 0.5% FBS. The medium was changed every 4-7 days. This differentiation procedure is referred to as the “Rapid Differentiation Paradigm” or RDP.
Six to 8 days after the first passage, the neurospheres were removed and centrifuged at 400 r.p.m. The EGF-containing media was removed and the pellet was suspended in EGF-free complete medium containing 1% FBS. The neurospheres were mechanically dissociated into single cells with a fire-polished Pasteur pipette and centrifuged at 800 r.p.m. for 5 minutes. Between 0.5×10^6 and 1.0×10^6 cells were plated on poly-L-ornithine-coated (15 μg/ml) glass coverslips in 24 well Nuclon (1.0 ml/well) culture dishes. The EGF-free culture medium containing 1% FBS was changed every 4-7 days.
Neurospheres were washed free of EGF by serial transfers through changes of EGF-free medium. A single neurosphere was plated onto poly-L-ornithine-coated (15 μg/ml) glass coverslips in a 24-well plate. The culture medium used was complete medium with or without I % FBS. The medium was changed every 4-7 days.
Neurospheres were washed free of EGF by serial transfers through changes of EGF-free medium. A single neurosphere was mechanically dissociated in a 0.5 ml Eppendorf centrifuge tube and all the cells were plated onto a 35 mm culture dish. Complete medium was used with or without 1% FBS.
The effects of CNTF, FGF-2, BDNF, and retinoic acid on neurosphere differentiation were tested using the differentiation paradigms set forth in Example 7.
The effect of CNTF was assayed in paradigms 1 and 3. For both paradigms, CNTF was added either at the beginning of the experiment at a concentration of 10 ng/ml or daily at a concentration of 1 ng/ml.
Three different antibodies directed against 04, galactocerebroside (GalC) and MBP were used to study the effect of CNTF on the oligodendrocytes of paradigm 1. CNTF had no effect on the number of 04(+) cells, but there was an increase in the number of GalC(+) and MBP(+) cells compared with the control. Thus it appears that CNTF plays a role in the maturation of oligodendrocytes.
The effect of FGF-2 was tested using paradigms 2 and 4. In paradigm 2, 20 ng/ml of FGF-2 was added at the beginning of the experiment and cells were stained 7 days later. FGF-2 increased the number of GFAP(+) cells and the number of NSE(+) cells.
In paradigm 4, 20 ng/ml of FGF-2 was added at the beginning of the experiment and assayed 7-10 days later. […] It induced two different cell types to divide, neuroblasts and bipotential progenitor cells. The neuroblast produced, on average, 6 neurons while the bipotential cell produced approximately 6 neurons and a number of astrocytes.

[4] = PROLIFERATIVE FACTOR EGF 20 ng/ml
[5] = PROLIFERATIVE FACTOR bFGF 20 ng/ml
[6] = PROLIFERATIVE FACTORS EGF + bFGF + Heparan
[7] = PROLIFERATIVE FACTORS EGF + bFGF
[8] = PROLIFERATIVE FACTORS bFGF + Heparan
[9] = paradigm 1, CNTF 10 ng/ml at beginning or 1 ng/ml daily

Cc1cn([C@H]2C[C@H](O)[C@@H](CO)O2)c(=O)[nH]c1=O [3H-thymidine]
proliferating subependymal population relative to controls ([1]; one kill on day 0, 8 days): 85% | proliferating subependymal population relative to controls ([1]; one kill on day 0, 8 days, listed as radioactive thymidine): back to control levels | proliferating subependymal population relative to controls ([1]; one kill on day 0, day 1 post-kill): 10% | proliferating subependymal population relative to controls ([1]; second kill on day 2, 8 days later): 45% | proliferating subependymal population relative to controls ([1]; second kill on day 2, 31 days after the second kill): 63% | proliferating subependymal population relative to controls ([1]; second kill on day 4, 8 days later): return to control values | proliferating subependymal population relative to controls ([1]; second kill on day 4, 8 days later, listed as radioactive thymidine): 85% | Number of Neurospheres produced in vitro relative to control ([2]; high doses on day 0): the same number of spheres | Number of Neurospheres produced in vitro relative to control ([2]; high doses on day 0, listed as radioactive thymidine): 100% | Number of Neurospheres produced in vitro relative to control ([2]; high doses on day 0 and day 2): 45% | Number of Neurospheres produced in vitro relative to control ([2]; high doses on day 0 and day 2, listed as radioactive thymidine): 45% | Number of Neurospheres produced in vitro relative to control ([2]; high doses on day 0 and day 4): not significantly different from control values | Number of Neurospheres produced in vitro relative to control ([2]; high doses on day 0 and day 4, listed as radioactive thymidine): 85%

PDGF
Numbers of neurospheres generated (#): decrease (−) or increase (+) per well compared with absence of the REGULATORY FACTOR (Primary striatal cells; [4]): −1.5% | Numbers of neurospheres generated (#): decrease (−) or increase (+) per well compared with absence of the REGULATORY FACTOR (Primary striatal cells; [5]): −4% | Numbers of neurospheres generated (#): decrease (−) or increase (+) per well compared with absence of the REGULATORY FACTOR (Primary striatal cells; [6]): −27% | Numbers of neurospheres generated (#): decrease (−) or increase (+) per well compared with absence of the REGULATORY FACTOR (Primary striatal cells; [7]): −26% | Numbers of neurospheres generated (#): decrease (−) or increase (+) per well compared with absence of the REGULATORY FACTOR (Primary striatal cells; [8]): −10% | numbers of neurospheres generated (Primary striatal cells): significantly reduced

heparan sulfate [reference compound]
Numbers of neurospheres generated (#): decrease (−) or increase (+) per well compared with absence of the REGULATORY FACTOR (Primary striatal cells; [4]): 0% | Size of neurospheres compared to PROLIFERATIVE FACTORS alone (Primary striatal cells; PROLIFERATIVE FACTOR bFGF): ++ | Numbers of neurospheres generated (#): decrease (−) or increase (+) per well compared with absence of the REGULATORY FACTOR (Primary striatal cells; [5]): 0% | Numbers of neurospheres generated (#): decrease (−) or increase (+) per well compared with absence of the REGULATORY FACTOR (Primary striatal cells; [7]): 0% | increase in size of the neurospheres formed in response to bFGF (Primary striatal cells; added to bFGF): about 400% | size of neurospheres relative to those which occur in response to EGF (Primary striatal cells; heparan sulfate 2 μg/ml added to bFGF generated spheres): approximately 70%

TNFα
Numbers of neurospheres generated (#): decrease (−) or increase (+) per well compared with absence of the REGULATORY FACTOR (Primary striatal cells; [4]): −17% | Numbers of neurospheres generated (#): decrease (−) or increase (+) per well compared with absence of the REGULATORY FACTOR (Primary striatal cells; [5]): −17% | Numbers of neurospheres generated (#): decrease (−) or increase (+) per well compared with absence of the REGULATORY FACTOR (Primary striatal cells; [6]): −37% | Numbers of neurospheres generated (#): decrease (−) or increase (+) per well compared with absence of the REGULATORY FACTOR (Primary striatal cells; [7]): −41% | Numbers of neurospheres generated (#): decrease (−) or increase (+) per well compared with absence of the REGULATORY FACTOR (Primary striatal cells; [8]): −21% | numbers of neurospheres generated (Primary striatal cells): significantly reduced

CC1=C(/C=C/C(C)=C/C=C/C(C)=C/C(=O)O)C(C)(C)CCC1 [Retinoic Acid, retinoic acid, reference compound]
Numbers of neurospheres generated (#): decrease (−) or increase (+) per well compared with absence of the REGULATORY FACTOR (Primary striatal cells; [4]): −8% | Size of neurospheres compared to PROLIFERATIVE FACTORS alone (Primary striatal cells; PROLIFERATIVE FACTOR bFGF): − | Numbers of neurospheres generated (#): decrease (−) or increase (+) per well compared with absence of the REGULATORY FACTOR (Primary striatal cells; [5]): −61% | Numbers of neurospheres generated (#): decrease (−) or increase (+) per well compared with absence of the REGULATORY FACTOR (Primary striatal cells; [6]): −45% | Numbers of neurospheres generated (#): decrease (−) or increase (+) per well compared with absence of the REGULATORY FACTOR (Primary striatal cells; [7]): −31% | Numbers of neurospheres generated (#): decrease (−) or increase (+) per well compared with absence of the REGULATORY FACTOR (Primary striatal cells; [8]): −65%

B1: CNTF: ciliary neurotrophic factor (protein, UniProt P26441 1-200, looked up)
Ciliary neurotrophic factor: MAFTEHSPLTPHRRDLCSRSIWLARKIRSDLTALTESYVKHQGLNKNINLDSADGMPVASTDQWSELTEAERLQENLQAYRTFHVLLARLLEDQQVHFTPTEGDFHQAIHTLLLQVAAFAYQIEELMILLEYKIPRNEADGMPINVGDGGLFEKKLWGLKVLQELSQWTVRSIHDLRFISSHQTGIPARGSHYIANNKKM
Size of neurospheres compared to PROLIFERATIVE FACTORS alone (Primary striatal cells; PROLIFERATIVE FACTOR EGF): − | Numbers of neurospheres generated (#): decrease (−) or increase (+) per well compared with absence of the REGULATORY FACTOR (Primary striatal cells; [4]): −23% | Numbers of neurospheres generated (#): decrease (−) or increase (+) per well compared with absence of the REGULATORY FACTOR (Primary striatal cells; [5]): −77% | Numbers of neurospheres generated (#): decrease (−) or increase (+) per well compared with absence of the REGULATORY FACTOR (Primary striatal cells; [6]): −84% | Numbers of neurospheres generated (#): decrease (−) or increase (+) per well compared with absence of the REGULATORY FACTOR (Primary striatal cells; [7]): −81% | Size of neurospheres compared to PROLIFERATIVE FACTORS alone (Primary striatal cells; [8]): − | Numbers of neurospheres generated (#): decrease (−) or increase (+) per well compared with absence of the REGULATORY FACTOR (Primary striatal cells; [8]): −81% | numbers of neurospheres generated (Primary striatal cells): significantly reduced | number of GalC(+) cells compared with control ([3]; paradigm 1): increase | number of MBP(+) cells compared with control ([3]; paradigm 1): increase | number of O4(+) cells ([3]; paradigm 1): no effect | number of NSE-immunoreactive cells [3, 9]: increased | number of tau-1-immunoreactive cells [3, 9]: increased | number of cells containing GABA and substance P ([3]; paradigm 1, preliminary testing): no increase | proliferation of flat, protoplasmic astrocytes ([3]; paradigm 1 without serum): increase | number of NSE(+) cells ([3]; paradigm 3, CNTF): increase
